This note sets out measurements from patent US7435837B2, “Dihydrobenzofuranyl alkanamine derivatives and methods for using same” (Wyeth, priority 2003, dated 2008).

Test [1] addresses T1, human 5-hydroxytryptamine-2C (h5-HT2C) receptor (Homo sapiens, UniProt P28335).
T1 construct: expressed in transfected cells; host or cells: CHO (Chinese Hamster Ovary) cells; membranes
T1 sequence (P28335 33-458): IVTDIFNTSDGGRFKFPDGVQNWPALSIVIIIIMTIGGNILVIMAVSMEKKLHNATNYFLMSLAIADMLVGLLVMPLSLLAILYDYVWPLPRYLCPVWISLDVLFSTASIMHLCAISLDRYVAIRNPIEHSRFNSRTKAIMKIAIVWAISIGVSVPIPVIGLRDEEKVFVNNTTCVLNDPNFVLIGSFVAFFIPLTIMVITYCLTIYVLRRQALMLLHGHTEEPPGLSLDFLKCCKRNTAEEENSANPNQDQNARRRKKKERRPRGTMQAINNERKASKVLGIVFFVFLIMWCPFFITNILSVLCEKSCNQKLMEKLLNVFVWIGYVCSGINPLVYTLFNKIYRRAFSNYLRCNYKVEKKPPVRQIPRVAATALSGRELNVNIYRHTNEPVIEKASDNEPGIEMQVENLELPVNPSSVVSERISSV
Briefly: [125I]DOI binding to membranes of CHO cells expressing the human 5-HT2C receptor. Particulars: [125I]DOI radioligand, CHO cell membranes, room temperature 60 min; read-out: 5-HT2C Affinity Ki.

For a further test, the target named is T2, human 5-HT2C receptor (Homo sapiens, UniProt P28335).
T2 sequence (P28335 33-458): T1 sequence (P28335 33-458)
The test is described as follows: 5-HT2C receptor-stimulated calcium mobilization (FLIPR) in CHO cells.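 As to all read-outs here: Fluo-3-AM fluorescence read on FLIPR every 1 s, agonist added after 10 baseline reads, response taken as peak minus lowest raw fluorescence count.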 It counts as cell-based. The note with it: for Emax: CHO, read-out: 5-HT2C Function Emax (%); for Emax / 5-HT2C Function Emax (%): percentage of the response observed with a maximally effective concentration of 5-HT; for EC50: calcium mobilization, CHO cells stably expressing human 5-HT2C, read-out: 5-HT2C Function EC50. A general note: A change in cytosolic calcium serves as a functional read-out for many receptors and channels.

On to `NCC1Cc2cc(F)cc(-c3ccc(F)cc3)c2O1` (racemic) [Example 199, (±)-{[5-fluoro-7-(4-fluorophenyl)-2,3-dihydro-1-benzofuran-2-yl]methyl}amine], for which the Ki in test [1] was found to be 0.019 µM. On human 5-HT2C receptor, the maximal response (Emax) stood at 80% and the 50% effective concentration (EC50) is 0.416 µM.
Take `NCC1Cc2cccc(-c3cccc(F)c3)c2O1` (racemic) [Example 64, (±)-1-[7-(3-fluorophenyl)-2,3-dihydro-1-benzofuran-2-yl]methanamine]: the Ki in test [1] was 0.013 µM. On human 5-HT2C receptor, the maximum response (Emax) stood at 100% and the EC50 was determined as 0.07 µM.
Turning to `NCC1Cc2cc(F)cc(-c3ccccc3C(F)(F)F)c2O1` (single isomer, unassigned; (-)) [Example 151, (−)-1-{5-fluoro-7-[2-(trifluoromethyl)phenyl]-2,3-dihydro-1-benzofuran-2-yl}methanamine], in test [1], the inhibition constant Ki stood at 0.0011 µM. Moreover, on human 5-HT2C receptor, the half-maximal effective concentration (EC50) is 0.027 µM and the “5-HT2C Function Emax (%)” value came to 100%.
Turning to `COc1cccc(-c2cccc3c2OC(CN)C3)c1` (single isomer, unassigned; (+)) [Example 133, (+)-1-[7-(3-methoxyphenyl)-2,3-dihydro-1-benzofuran-2-yl]methanamine], the Ki in test [1] was 0.0036 µM. For the same compound, on human 5-HT2C receptor, the Emax turned out to be 80% and the EC50 amounted to 0.066 µM.
Taken in the same sequence, the figures for `COc1ccc(-c2cc(C(F)(F)F)cc3c2OC(CN)C3)cc1` (racemic) [Example 326, (±)-{[5-(trifluoromethyl)-7-(4-methoxyphenyl)-2,3-dihydro-1-benzofuran-2-yl]methyl}amine] were 0.034 µM, 80% and 0.228 µM.
Taken in the same sequence, the figures for `COc1cc2c(c(-c3c(C)cccc3C)c1)OC(CN)C2` (racemic) [Example 374, (±)-{[7-(2,6-dimethylphenyl)-5-methoxy-2,3-dihydro-1-benzofuran-2-yl]methyl}amine] were 0.0006 µM, 100% and 0.019 µM.
For `Cc1cc2c(c(-c3ccccc3Cl)c1)OC(CN)C2` (racemic) [Example 286, (±)-{[7-(2-chlorophenyl)-5-methyl-2,3-dihydro-1-benzofuran-2-yl]methyl}amine] the same measures were 0.00076 µM, 100% and 0.006 µM.
For the compound `NCC1Cc2cccc(-c3ccccc3F)c2O1` (racemic) [Example 50, (±)-1-[7-(2-fluorophenyl)-2,3-dihydro-1-benzofuran-2-yl]methanamine], in test [1], the Ki was found to be 0.001 µM. Also, on human 5-HT2C receptor, the Emax was 100% and the EC50 was determined as 0.014 µM.
For `COc1ccc(C)c(-c2cc(F)cc3c2OC(CN)C3)c1` (racemic) [Example 224, (±)-{[5-fluoro-7-(5-methoxy-2-methylphenyl)-2,3-dihydro-1-benzofuran-2-yl]methyl}amine] the same measures were 0.018 µM, 70% and 0.455 µM.
For `CNCC1Cc2cc(C(F)(F)F)cc(-c3ccccc3)c2O1` (racemic) [Example 518, (±)-{[N-methyl-1-[7-phenyl-5-(trifluoromethyl)-2,3-dihydro-1-benzofuran-2-yl]methanamine] the same measures were 0.04 µM, 80% and 0.384 µM.
Taken in the same sequence, the figures for `NCC1Cc2cccc(-c3ccc(Cl)cc3)c2O1` (single isomer, unassigned; (+)) [Example 77, (+)-1-[7-(4-chlorophenyl)-2,3-dihydro-1-benzofuran-2-yl]methanamine] were 0.002 µM, 100% and 0.008 µM.
`NCC1Cc2cccc(-c3ccc(Cl)cc3)c2O1` (racemic) [Example 76, (±)-1-[7-(4-chlorophenyl)-2,3-dihydro-1-benzofuran-2-yl]methanamine]: in test [1], the Ki came out at 0.003 µM. At human 5-HT2C receptor, the Emax came out at 90% and the EC50 was found to be 0.025 µM.
Taken in the same sequence, the figures for `NCC1Cc2cccc(-c3ccc(F)cc3F)c2O1` (single isomer, unassigned; (+)) [Example 147, (+)-1-[7-(2,4-difluorophenyl)-2,3-dihydro-1-benzofuran-2-yl]methanamine] were 0.0013 µM, 90% and 0.007 µM.
With `COc1cc2c(c(-c3cc(F)ccc3F)c1)OC(CN)C2` (racemic) [Example 366, (±)-{[7-(2,5-difluorophenyl)-5-methoxy-2,3-dihydro-1-benzofuran-2-yl]methyl}amine], the Ki in test [1] was 0.013 µM. On human 5-HT2C receptor, the maximal response (Emax) is 80% and the 50% effective concentration (EC50) was found to be 0.394 µM.
On to `Cc1cccc(C)c1-c1cccc2c1OC(CN)C2` (single isomer, unassigned; (+)) [Example 58, (+)-1-[7-(2,6-dimethylphenyl)-2,3-dihydro-1-benzofuran-2-yl]methanamine], for which the Ki in test [1] turned out to be 0.009 µM. At human 5-HT2C receptor, the EC50 was 0.313 µM and the “5-HT2C Function Emax (%)” value came to 60%.
For `Cc1ccccc1-c1cc(F)cc2c1OC(CN)C2` (single isomer, unassigned; (+)) [Example 105, (+)-1-[5-fluoro-7-(2-methylphenyl)-2,3-dihydro-1-benzofuran-2-yl]methanamine] the same measures were 0.001 µM, 0.004 µM and 95%.
For `NCC1Cc2cc(Cl)cc(-c3ccoc3)c2O1` (racemic) [Example 243, (±)-{[5-chloro-7-(3-furyl)-2,3-dihydro-1-benzofuran-2-yl]methyl}amine], the Ki in test [1] amounted to 0.00025 µM. At human 5-HT2C receptor, the Emax is 90% and the EC50 was determined as 0.05 µM.
Take `NCC1Cc2cccc(-c3ccc(F)cc3)c2O1` (racemic) [Example 73, (±)-1-[7-(4-fluorophenyl)-2,3-dihydro-1-benzofuran-2-yl]methanamine]: the inhibition constant (Ki) in test [1] came to 0.005 µM. Also, on human 5-HT2C receptor, the Emax is 100% and the concentration giving a half-maximal response (EC50) amounted to 0.041 µM.
For `CN(C)CC1Cc2cc(F)cc(-c3c(Cl)cccc3Cl)c2O1` (racemic) [Example 237, (±)-{[7-(2,6-dichlorophenyl)-5-fluoro-2,3-dihydro-1-benzofuran-2-yl]methyl}dimethylamine] the same measures were 0.00057 µM, 80% and 0.003 µM.
Taken in the same sequence, the figures for `Cc1cccc(-c2cc(C)cc3c2OC(CN)C3)c1` (racemic) [Example 289, (±)-{[7-(3-methylphenyl)-5-methyl-2,3-dihydro-1-benzofuran-2-yl]methyl}amine] were 0.001 µM, 100% and 0.044 µM.
For `CNCC1Cc2cccc(-c3c(Cl)cc(Cl)cc3Cl)c2O1` (racemic) [Example 555, (±)-{N-methyl-1-[(7-(2,4,6-trichlorophenyl)-2,3-dihydro-1-benzofuran-2-yl]methanamine] the same measures were 0.0006 µM, 80% and 0.004 µM.
`Cc1cccc(-c2cccc3c2OC(CN)C3)c1` (single isomer, unassigned; (-)) [Example 43, (−)-1-[7-(3-methylphenyl)-2,3-dihydro-1-benzofuran-2-yl]methanamine]: the Ki in test [1] was 0.1 µM. At human 5-HT2C receptor, the EC50 was 0.748 µM and the “5-HT2C Function Emax (%)” value was determined as 80%.
For the compound `COc1cccc(-c2cccc3c2OC(CN)C3)c1` (racemic) [Example 68, (±)-1-[7-(3-methoxyphenyl)-2,3-dihydro-1-benzofuran-2-yl]methanamine], in test [1], the inhibition constant Ki is 0.005 µM. Further, at human 5-HT2C receptor, the maximum response (Emax) amounted to 90% and the EC50 was found to be 0.144 µM.
Regarding `NCC1Cc2cc(F)cc(-c3ccccc3C(F)(F)F)c2O1` (single isomer, unassigned; (+)) [Example 152, (+)-1-{5-fluoro-7-[2-(trifluoromethyl)phenyl]-2,3-dihydro-1-benzofuran-2-yl}methanamine], the Ki in test [1] was 0.0066 µM. Further, at human 5-HT2C receptor, the concentration giving a half-maximal response (EC50) came to 0.202 µM and the “5-HT2C Function Emax (%)” value turned out to be 70%.
Take `CC(C)c1ccccc1-c1cccc2c1OC(CN)C2` (single isomer, unassigned; (+)) [Example 62, (+)-[7-(2-isopropylphenyl)-2,3-dihydro-1-benzofuran-2-yl]methylamine]: in test [1], the Ki was found to be 0.04 µM. On human 5-HT2C receptor, the maximum response (Emax) is 70% and the EC50 was 0.13 µM.
For `NCC1Cc2cc(F)cc(-c3c(F)cccc3F)c2O1` (racemic) [Example 226, (±)-{[7-(2,6-difluorophenyl)-5-fluoro-2,3-dihydro-1-benzofuran-2-yl]methyl}amine] the same measures were 0.0013 µM, 90% and 0.03 µM.
For `COc1ccc(C)cc1-c1cc(F)cc2c1OC(CN)C2` (racemic) [Example 225, (±)-{[5-fluoro-7-(2-methoxy-5-methylphenyl)-2,3-dihydro-1-benzofuran-2-yl]methyl}amine] the same measures were 0.0012 µM, 90% and 0.003 µM.
For `Cc1cc2c(c(-c3c(Cl)cccc3Cl)c1)OC(CN)C2` (racemic) [Example 302, (±)-{[7-(2,6-dichlorophenyl)-5-methyl-2,3-dihydro-1-benzofuran-2-yl]methyl}amine] the same measures were 0.0003 µM, 100% and 0.002 µM.

The Ki is the dissociation constant of the complex between target and ligand, obtained from inhibition or displacement. Usually Emax stands for the size of the effect at its maximum, as opposed to the concentration needed. The EC50 is the concentration at which the effect is half-maximal.
